Test results published in patent US20030228308A1, “Isolated peptides which bind to HLA-Cw6 molecules and uses thereof” (priority 2002, published 2003).

How the values were obtained:
autologous EBV-B cells = experiment: 51Cr release lysis of peptide-incubated autologous EBV-B cells by CTL clone; type: cell-based, human; settings: effector:target 10:1, chromium release after 4 hours; for lysis (chromium release): 1 μg/ml of peptide, 15 minutes
Method: A set of 16 amino acid long, MAGE-1 derived peptides were prepared, using standard solid phase methodologies.
The peptides, which overlapped by 12 residues and covered the entire MAGE-1 amino acid sequence, were incubated with autologous EBV-B cells that had been labelled with Na(^51Cr)O4. The cells were incubated for 15 minutes in the presence of 1 μg/ml of peptide, and then tested for lysis with the T cells, at effector:target ratios of 10:1. Chromium release was measured after 4 hours.
It corresponds to amino acids 230-238 of MAGE-1. The shorter peptide was tested, in the same manner as the longer ones.

EBV-B cells = experiment: TNF production by CTL co-cultured with fixed EBV-B cells pulsed with the shorter peptide; type: cell-based, human; settings: PFA-fixed EBV-B cells pulsed with peptide; overnight co-culture with 5,000 CTLs; WEHI 164 clone 13 readout
Method: A MAGE-1 expressing tumor cell line, MZ2-MEL.43 was obtained from a patient who tested positive for HLA-Cw6 expression. These cells either were, or were not contacted with gamma interferon (100 U/ml), 48 hours before lysis studies. EBV-B cells were also used. These cells naturally produce TNF. They were fixed with PFA (1% in PBS) for 10 minutes at room temperature, washed twice with Hank's medium, and either pulsed or not with the shorter peptide.
Stimulator cells (2×10^4) were distributed in flat bottom microwells, and cocultured with 5,000 CTLs, in a total volume of 150 μl of complete IMDM, supplemented with 25 U/ml of IL-2.
TNF production was measured, following overnight co-culture, by testing for toxicity of supernatant on TNF sensitive, WEHI 164 clone 13 cells.

| Sequence | lysis (chromium release) (autologous EBV-B cells) | EC50 (autologous EBV-B cells; read-out: peptide concentration giving half maximal lysis) | TNF production by CTL (EBV-B cells) |
| --- | --- | --- | --- |
| DGREHSAYGEPRKLLT (H. sapiens) [SEQ ID NO:1, amino acids 225-240 of MAGE-1] | positive |  |  |
| SAYGEPRKL |  | ~6 nM | did stimulate TNF production |
| HSAYGEPRKLLTQDLV (H. sapiens) [SEQ ID NO:2, amino acids 229-244 of MAGE-1] | positive |  |  |
